# Target: biotinylated r(G4C2)8 RNA and hnRNP H1-His6
# Assay: TR-FRET hnRNP H binding assay
# Settings: Table D
# Procedure: TR-FRET hnRNP H Binding Assay. The TR-FRET assays were performed as previously described (Disney et al., 2012) except the final concentrations of biotinylated r(G4C2)8 (SEQ ID NO: 2) RNA and hnRNP H1-His6 were 80 nM and 75 nM, respectively. The RNA was folded by heating to 95° C. for 5 min in 1× Folding Buffer followed by slowly cooling to room temperature. The buffer was adjusted to 1×TR-FRET Assay Buffer followed by addition of compound. The mixture was incubated for 15 min at room temperature and then hnRNP H1-His6 was added. After an additional 15 min incubation, streptavidin-XL665 (HTRF, Cisbio Bioassays) and anti-His6-Tb (HTRF, Cisbio Bioassays) were added to a final concentration of 40 nM and 0.44 ng/μL, respectively. After incubating for 1 h, TR-FRET was measured as previously described. The IC50s were either calculated by fitting the equation (1) in Graphpad Prism.
row,SMILES,Ki [µM]
1,"Cc1c2ccncc2cc2c3cc(O)ccc3n(C)c12 [Compound 2, 5,6-dimethyl-6H-pyrido[4,3-b]carbazol-9-ol]",> 200
2,"Cc1c2ccncc2cc2c3cc(OCC(=O)O)ccc3n(C)c12 [Compound 4b, 2-((5,6-dimethyl-6H-pyrido[4,3-b]carbazol-9-yl)oxy)acetic acid]",> 200
3,"Cc1c2ccncc2cc2c3cc(OCC#N)ccc3n(C)c12 [Compound 13, 2-((5,6-dimethyl-6H-pyrido[4,3-b]carbazol-9-yl)oxy)acetonitrile]",> 200
4,"COc1ccc2c(c1)c1cc3cnccc3c(C)c1n2Cc1cnn(C)c1 [Compound 14, 9-methoxy-5-methyl-6-((1-methyl-1H-pyrazol-4-yl)methyl)-6H-pyrido[4,3-b]carbazol]",> 200
5,"COc1ccc2c(c1)c1cc3cnccc3c(C)c1n2Cc1ccncc1 [Compound 16, 9-methoxy-5-methyl-6-(pyridin-4-ylmethyl)-6H-pyrido[4,3-b]carbazole]",> 200
6,"COc1ccc2c(c1)c1cc3cnccc3c(C)c1n2Cc1ccccc1 [Compound 17, 6-benzyl-9-methoxy-5-methyl-6H-pyrido[4,3-b]carbazole]",> 200
7,"COc1ccc2c(c1)c1cc3cnccc3c(C)c1n2C(C)C [Compound 18, 6-isopropyl-9-methoxy-5-methyl-6H-pyrido[4,3-b]carbazole]",> 200
8,"COc1ccc2c(c1)c1cc3cnccc3c(C)c1n2C[C@@H](O)c1ccccc1 [Compound 19, (S)-2-(9-methoxy-5-methyl-6H-pyrido[4,3-b]carbazol-6-yl)-1-phenylethan-1-ol]",> 200
9,"COc1ccc2c(c1)c1cc3cnccc3c(C)c1n2CCN(C)C [Compound 20, 2-(9-methoxy-5-methyl-6H-pyrido[4,3-b]carbazol-6-yl)-N,N-dimethylethan-1-amine]",> 200
10,"COc1ccc2c(c1)c1cc3cnccc3c(C)c1n2CC1=NCCN1 [Compound 21, 6-((4,5-dihydro-1H-imidazol-2-yl)methyl)-9-methoxy-5-methyl-6H-pyrido[4,3-b]carbazole]",> 200
11,"COc1ccc2c(c1)c1cc3cnccc3c(C)c1n2CCCN1CCN(C)CC1 [Compound 22, 9-methoxy-5-methyl-6-(3-(4-methylpiperazin-1-yl)propyl)-6H-pyrido[4,3-b]carbazole]",> 200
12,"COc1ccc2c(c1)c1cc3c(C(=O)O)nccc3c(C)c1n2C [Compound 24, 9-methoxy-5,6-dimethyl-6H-pyrido[4,3-b]carbazole-1-carboxylic acid]",> 200

# Same assay, conditions: Table F
row,SMILES,Ki [µM]
1,"Cn1c2ccc(OCCN3CCOCC3)cc2c2cc3ncccc3cc21 [Compound 225, 4-(2-((6-methyl-6H-pyrido[3,2-b]carbazol-9-yl)oxy)ethyl)morpholine]",> 200
2,"CN(C)CCOc1ccc2c(c1)c1cc3ncccc3cc1n2C [Compound 226, N,N-dimethyl-2-((6-methyl-6H-pyrido[3,2-b]carbazol-9-yl)oxy)ethanamine]",13
3,"Cc1c2ccncc2cc2c1oc1ccc(OCC3=NCCN3)cc12 [Compound 233, 9-((4,5-dihydro-1H-imidazol-2-yl)methoxy)-5-methylbenzofuro[2,3-g]isoquinoline]",7.5
4,"Cc1c2ccnc(C(C)C)c2cc2c3cc(C(=O)NCCN(C)C)ccc3n(C)c12 [Compound 238, N-(2-(dimethylamino)ethyl)-1-isopropyl-5,6-dimethyl-6H-pyrido[4,3-b]carbazole-9-carboxamide]",20
5,"Cc1c2ccncc2cc2c3cc(C(=O)OCCN(C)C)ccc3n(C)c12 [Compound 239, 2-(dimethylamino)ethyl 5,6-dimethyl-6H-pyrido[4,3-b]carbazole-9-carboxylate]",24
6,"COc1cccc2c3cc4c(C(=O)N[C@H](C)CN(C)C)nccc4c(C)c3n(C)c12 [Compound 240, (R)—N-(1-(dimethylamino)propan-2-yl)-7-methoxy-5,6-dimethyl-6H-pyrido[4,3-b]carbazole-1-carboxamide]",20
7,"Cc1c2ccnc(C(=O)N[C@H](C)CN(C)C)c2cc2c3c(OCCCN4CCN(C)CC4)cccc3n(C)c12 [Compound 241, (R)—N-(1-(dimethylamino)propan-2-yl)-5,6-dimethyl-10-(3-(4-methylpiperazin-1-yl)propoxy)-6H-pyrido[4,3-b]carbazole-1-carboxamide]",1.8

# Tested on: RAN translation of (G4C2)66-No ATG-GFP in HEK293T cells
# Assay: Cell-based assay of RAN translation inhibition (GFP/mCherry reporter)
# Settings: Homo sapiens, HEK-293T, 24 h, Table D; HEK293T, 24 h treatment; read-out: RANT IC25
row,SMILES,IC25 [µM]
1,"Cc1c2ccncc2cc2c3cc(OCCN4CCCC4)ccc3n(C)c12 [Compound 7, 5,6-dimethyl-9-(2-(pyrrolidin-1-yl)ethoxy)-6H-pyrido[4,3-b]carbazole]",> 5
2,"Cc1c2ccncc2cc2c3cc(C(=O)N4CCNCC4)ccc3n(C)c12 [Example 72, (5,6-dimethyl-6H-pyrido[4,3-b]carbazol-9-yl)(piperazin-1-yl)methanone]",> 5
3,"Cc1c2ccncc2cc2c3cc(C(=O)NCCN)ccc3n(C)c12 [Example 74, N-(2-aminoethyl)-5,6-dimethyl-6H-pyrido[4,3-b]carbazole-9-carboxamide]",> 5
4,"COCCNC(=O)c1ccc2c(c1)c1cc3cnccc3c(C)c1n2C [Example 79, N-(2-methoxyethyl)-5,6-dimethyl-6H-pyrido[4,3-b]carbazole-9-carboxamide]",1.1

# Same assay, conditions: Homo sapiens, HEK-293T, 24 h, read-out: RANT IC25
row,SMILES,IC25 [µM]
1,"Cc1c2ccncc2cc2c3cc(OCCN4CCC(O)CC4)ccc3n(C)c12 [Compound 228, 1-(2-((5,6-dimethyl-6H-pyrido[4,3-b]carbazol-9-yl)oxy)ethyl)piperidin-4-ol]",1.3

# Same assay, conditions: Homo sapiens, HEK-293T, read-out: RANT IC50
row,SMILES,IC50 [µM]
1,"Cc1c2ccncc2cc2c3cc(Oc4ccccn4)ccc3n(C)c12 [Compound 305, 5,6-dimethyl-9-(pyridin-2-yloxy)-6H-pyrido[4,3-b]carbazole]",18

# Same assay, conditions: Homo sapiens, HEK-293T; Table E; inhibition of RAN translation, HEK293T; read-out: IC50
row,SMILES,IC50 [µM]
1,"CCOC(=O)c1nccc2c(C)c3[nH]c4ccc(OC)cc4c3cc12 [Compound 202, Ethyl-9-methoxy-5-methyl-6H-pyrido[4,3-b]carbazole-1-carboxylate]",12
2,CCOC(=O)C1=NCCc2c1cc1c([nH]c3ccc(OC)cc31)c2C [Compound 203],> 12.5
3,"CCOC(=O)c1nccc2c(C)c3c(cc12)c1cc(OC)ccc1n3C [Compound 204, Ethyl-9-methoxy-5,6-dimethyl-6H-pyrido[4,3-b]carbazole-1-carboxylate]",12.5
4,COCCNC(=O)c1nccc2c(C)c3[nH]c4ccc(OC)cc4c3cc12 [Compound 205],12.5
5,CCCNC(=O)c1nccc2c(C)c3[nH]c4ccc(OC)cc4c3cc12 [Compound 206],> 12.5
6,COc1ccc2[nH]c3c(C)c4ccnc(C(=O)NCCO)c4cc3c2c1 [Compound 207],6
7,COc1ccc2[nH]c3c(C)c4ccnc(C(=O)NCCN)c4cc3c2c1 [Compound 208],2.2
8,COc1ccc2[nH]c3c(C)c4ccnc(C(=O)NCCN(C)C)c4cc3c2c1 [Compound 209],3.1
9,COc1ccc2[nH]c3c(C)c4ccnc(C(=O)NCCCN(C)C)c4cc3c2c1 [Compound 210],10.3
10,COc1ccc2c(c1)c1cc3c(C(=O)NCCN(C)C)nccc3c(C)c1n2C [Compound 211],3.1
11,"COc1ccc2c(c1)c1cc3c(C(=O)N[C@H](C)CN(C)C)nccc3c(C)c1n2C [Compound 212, (R)—N-(1-(dimethylamino)propan-2-yl)-9-methoxy-5,6-dimethyl-6H-pyrido[4,3-b]carbazole-1-carboxamide]",3.1

# Same assay, conditions: Homo sapiens, HEK-293T; Table G; HEK293T; read-out: RANT IC50
row,SMILES,IC50 [µM]
1,"Cc1c2ccncc2cc2c3cc(C(=O)NCCOC(C)(C)C)ccc3n(C)c12 [Compound 301, N-(2-(tert-butoxy)ethyl)-5,6-dimethyl-6H-pyrido[4,3-b]carbazole-9-carboxamide]",13
